Patent publication US5179082A, “Method for blocking platelet adhesion to collagen” (Merck & Co., Inc., priority 1991, dated 1993)
Like-named read-outs stand apart in the source and are kept apart here. Positions of bridges follow the written chain, without caps; N, C: chain ends. No end group written: not given here.

Tests used:
[1] = biological target: fibrinogen receptor glycoprotein IIb/IIIa
[2] = test system: platelet adhesion to collagen; assay: Inhibition of platelet adhesion to collagen-coated microtiter wells; assay type: cell-based
Experimental: (§1) Polystyrene 96-well microtiter plates (Costar, Cambridge, MA) are coated with […] per well of […] collagen dissolved in 5 mM acetic acid for 1 hour at room temperature followed by blocking of the non-specific cell binding sites by addition of […] of 10 mg/ml heat-denatured BSA for 1 hour. Control wells are coated with BSA only. The wells are rinsed three times with HEPES buffered saline (HBS) containing 20 mM HEPES, pH 7.4, 0.14 M NaCl, and 2 mM MgCl2. […] of washed platelets are incubated with various concentrations of polypeptide I or buffer as a control for 5 minutes at room temperature and then added to each collagen coated well and incubated at room temperature for 45 minutes. Nonadherent platelets are removed by aspiration, and the wells are rinsed three times with […] of HBS. The number of adhered platelets is determined by protein assay, using the BCA reagent and measuring the absorbance of each well at […].
(§2) Sequence ID Nos. I, II, III, IV and V were evaluated for their ability to block platelet adhesion to collagen using the assay described in Example 2 to determine inhibition of platelet adhesion to collagen. An assay similar to the assay described in Example 2, with the exception that plates are coated with fibrinogen rather than collagen, for determining inhibition of platelet binding to fibrinogen.

[3] = test system: platelet adhesion to fibrinogen; assay: Inhibition of platelet adhesion to fibrinogen-coated plates; assay type: cell-based; set-up: Percent Inhibition of Adhesion, Fibrinogen, Extent: dose or concentration left out as unconfirmed; conditions: for IC50: fibrinogen-coated plates
Experimental: as §1, §2

[4] = test system: ADP-stimulated platelet aggregation; assay: Inhibition of ADP-stimulated platelet aggregation; assay type: cell-based; conditions: Table 1
[5] = Preliminary in vivo antithrombotic studies

Substance: polypeptide I (Sequence ID No. 1), synthetic echistatin
- Percent inhibition of adhesion to collagen, Extent (washed platelets): 50%
- Percent inhibition of adhesion to fibrinogen, Extent [1]: 95%

Substance: H-ECESGPCCRNCKFLKEGTICKRARGDDMDDYCNGKTCDCPRNPHKGPAT-OH (disulfide 2-11, 7-32, 8-37, 20-39 (inferred)) [Polypeptide I, echistatin]
- Inhibition of platelet adhesion to collagen (in words) [2]: inhibit platelet adhesion to collagen
- Percent Inhibition of Adhesion, Collagen, Extent ([2]; Table 1): 50%
- Decrease of control A562 values (adhered platelets) ([2]; concentration dependent, control A562 0.3 to 1.0 O.D.): up to 50%
- Percent Inhibition of Adhesion, Fibrinogen, Extent ([3]; Table 1, concentration not given): 95%
- IC50 ([3]; Table 1): 270 nM
- IC50 [4]: 30 nM
- Antithrombotic effect in vivo [5]: very effective antithrombotic agent

Substance: Polypeptide V: NH2 (Ch) Ala Arg Gly Asp (Cy) Z, Z = NH2; 39 amino acids, terminal amino group at Cys 39 (ECESGPCCRNCKFLKEGTICKRARGDDMDDYCNGKTCDC-NH2; not fully specified (bridges); also: terminal modifications Ch, Cy, terminal amino group at Cys 39)
- IC50 ([2]; Table 1, collagen-coated wells, washed platelets): 530 nM
- Percent Inhibition of Adhesion, Collagen, Extent ([2]; Table 1): 58%
- Specificity for platelet adhesion to collagen (versus fibrinogen) ([2]; comparison of Table 1 values): most specific for platelet adhesion to collagen
- Percent Inhibition of Adhesion, Fibrinogen, Extent [3]: 55%
- IC50 ([3]; Table 1): > 8000 nM
- IC50 [4]: 800 nM
